In ChEMBL document CHEMBL3044751, “Structure-based design, synthesis, and molecular modeling studies of 1-(benzo[d]thiazol-2-yl)-3-(substituted aryl)urea derivatives as novel anti-Parkinsonian agents” (2012):

Key:
Format in all cases: functional
Conditions in all cases: route intraperitoneal
[1] = test system: Mus musculus; assay: Antiparkinsonian activity against haloperidol-induced catalepsy in Mus musculus Swiss albino (mouse) assessed as decrease in mean descent time at 100 mg/kg, ip administered 30 min prior to haloperidol injection measured after 180 min
[2] = test system: Mus musculus; assay: Antiparkinsonian activity against haloperidol-induced catalepsy in Mus musculus Swiss albino (mouse) assessed as decrease in mean descent time at 100 mg/kg, ip administered 30 min prior to haloperidol injection measured after 150 min
[3] = test system: Mus musculus; assay: Antiparkinsonian activity against haloperidol-induced catalepsy in Mus musculus Swiss albino (mouse) assessed as decrease in mean descent time at 100 mg/kg, ip administered 30 min prior to haloperidol injection measured after 30 min
[4] = test system: Mus musculus; assay: Antiparkinsonian activity against haloperidol-induced catalepsy in Mus musculus Swiss albino (mouse) assessed as decrease in mean descent time at 100 mg/kg, ip administered 30 min prior to haloperidol injection measured after 90 min
[5] = test system: Mus musculus; assay: Antiparkinsonian activity against haloperidol-induced catalepsy in Mus musculus Swiss albino (mouse) assessed reduction in catalepsy at 100 mg/kg, ip administered 30 min prior to haloperidol injection measured after 30 to 180 min; parameters: scale not given: the % may be the effect or the level left
[6] = test system: Mus musculus; assay: Antiparkinsonian activity against haloperidol-induced catalepsy in Mus musculus Swiss albino (mouse) assessed as decrease in mean descent time at 100 mg/kg, ip administered 30 min prior to haloperidol injection measured after 60 min
[7] = test system: Mus musculus; assay: Antiparkinsonian activity against haloperidol-induced catalepsy in Mus musculus Swiss albino (mouse) assessed as decrease in mean descent time at 100 mg/kg, ip administered 30 min prior to haloperidol injection measured after 120 min
[8] = test system: Mus musculus; assay: Antiparkinsonian activity against haloperidol-induced oxidative stress in Mus musculus Swiss albino (mouse) assessed reduction in glutathione peroxidase activity in brain by measuring malondialdehyde level at 100 mg/kg, ip administered 30 min prior to haloperidol injection
[9] = test system: Mus musculus; assay: Antiparkinsonian activity against haloperidol-induced oxidative stress in Mus musculus Swiss albino (mouse) assessed reduction in superoxide dismutase activity in brain by measuring malondialdehyde level at 100 mg/kg, ip administered 30 min prior to haloperidol injection by NBT reduction assay
[10] = test system: Mus musculus; assay: Antiparkinsonian activity against haloperidol-induced oxidative stress in Mus musculus Swiss albino (mouse) assessed reduction in glutathione level in brain by measuring malondialdehyde level at 100 mg/kg, ip administered 30 min prior to haloperidol injection
[11] = test system: Mus musculus; assay: Antiparkinsonian activity against haloperidol-induced oxidative stress in Mus musculus Swiss albino (mouse) assessed reduction in lipid peroxidation in brain by measuring malondialdehyde level at 100 mg/kg, ip administered 30 min prior to haloperidol injection by TBARS assay

SMILES	Time [1] [s]	Time [2] [s]	Time [3] [s]	Time [4] [s]	Activity [5] [%]	Time [6] [s]	Time [7] [s]	Activity [8] [U/g]	Activity [9] [U/mg]	Activity [10] [µg/g]	Activity [11] [nmol/mg]
O=C(Nc1nc2ccccc2s1)Nc1ccccc1Br	224	201	118	156	36.7	128	173	–	–	–	–
O=C(Nc1nc2ccccc2s1)Nc1cc(C(F)(F)F)ccc1Cl	173	129	77	114	56.3	89	118	–	–	–	–
Nc1nc2c(cnn2CCc2ccccc2)c2nc(-c3ccco3)nn12 [SCH-58261]	72	58	11	36	86.4	19	45	–	–	–	–
O=C(Nc1cccc(Cl)c1)Nc1nc2ccccc2s1	230	191	101	169	35.6	144	182	–	–	–	–
O=C(Nc1nc2ccccc2s1)Nc1ccccc1F	241	223	81	193	30.8	145	207	–	–	–	–
COc1cc(NC(=O)Nc2nc3ccccc3s2)cc(OC)c1OC	122	115	37	81	70.1	46	89	–	–	–	–
Cc1ccccc1NC(=O)Nc1nc2ccccc2s1	198	180	66	134	46.9	101	166	–	–	–	–
O=C(Nc1ccc(Oc2ccccc2)cc1)Nc1nc2ccccc2s1	196	189	51	126	50.5	67	161	–	–	–	–
COc1ccccc1NC(=O)Nc1nc2ccccc2s1	103	95	32	65	75.9	34	72	1.65	2.12	12.34	2.99
N[C@@H](Cc1ccc(O)c(O)c1)C(=O)O [LEVODOPA]	137	122	32	99	65.6	49	119	–	–	–	–
COc1ccc(NC(=O)Nc2nc3ccccc3s2)cc1	181	180	43	117	53.1	69	160	–	–	–	–
O=C(Nc1ccc(Cl)cc1)Nc1nc2ccccc2s1	220	207	78	166	37.4	129	190	–	–	–	–
O=C(NCc1ccco1)Nc1nc2ccccc2s1	95	85	18	72	77.3	29	81	1.36	1.87	16.53	3.12
Cc1ccc(NC(=O)Nc2nc3ccccc3s2)cc1	185	171	72	155	47.2	97	160	–	–	–	–
O=C(Nc1ccc([N+](=O)[O-])cc1)Nc1nc2ccccc2s1	253	234	90	181	30.5	138	199	–	–	–	–
O=C(Nc1nc2ccccc2s1)Nc1ccccc1[N+](=O)[O-]	130	99	23	77	71.4	56	85	–	–	–	–
O=C(Nc1ccc(F)cc1)Nc1nc2ccccc2s1	263	234	70	188	29.8	131	219	–	–	–	–
COc1ccc(NC(=O)Nc2nc3ccccc3s2)c(OC)c1	149	107	26	78	69.8	41	94	–	–	–	–
O=C(Nc1nc2ccccc2s1)Nc1ccccc1Cl	289	212	57	134	37.1	98	205	–	–	–	–
O=C(Nc1ccc(Br)cc1)Nc1nc2ccccc2s1	216	211	87	178	35.4	132	196	–	–	–	–
O=C(CCCN1CCC(O)(c2ccc(Cl)cc2)CC1)c1ccc(F)cc1 [HALOPERIDOL]	300	300	155	264	–	242	300	0.68	0.85	5.57	4.92
